Values quoted from earlier work in patent US20170274058A1, “Cancer Stem Cell-Targeted Cancer Therapy” (priority 2006, published 2017).
Counter-ions that a name gives are not always drawn.

System: cancer stem cells, including leukemia stem cells
Details: background statement, references in Table 1

Nc1ccn([C@@H]2O[C@H](CO)[C@@H](O)[C@@H]2O)c(=O)n1 [Ara-C, cytarabine]
resistance of cancer stem cells to the therapy: relatively resistant

CC(C)C[C@H](NC(=O)[C@H](Cc1ccccc1)NC(=O)c1cnccn1)B(O)O [Velcade®]
resistance of cancer stem cells to the therapy: relatively resistant

Cc1ccc(NC(=O)c2ccc(CN3CCN(C)CC3)cc2)cc1Nc1nccc(-c2cccnc2)n1 [Gleevec®, imatinib mesylate]
resistance of cancer stem cells to the therapy: relatively resistant

COc1cccc2c1C(=O)c1c(O)c3c(c(O)c1C2=O)C[C@@](O)(C(C)=O)C[C@@H]3O[C@H]1C[C@H](N)[C@H](O)[C@H](C)O1 [daunorubicin]
resistance of cancer stem cells to the therapy: relatively resistant
